Measurements as given in patent US20080248511A1, “METHODS TO QUENCH LIGHT FROM OPTICAL REACTIONS” (priority 2007, published 2008).
Read-outs that look alike come from different tables or passages of the source.

What was measured:
[1] = biological target: T1, Renilla luciferase (Renilla reniformis, UniProt P27652); assay: biochemical; format: biochemical; conditions: for remaining activity at 0.5 %: 0.5% detergent in Renilla Luciferase Assay Reagent, read-out: Retained Renilla Luciferase Luminescence (%); for Selectivity Value: retained firefly / retained Renilla, 0.5% detergent
T1 sequence (P27652 1-311): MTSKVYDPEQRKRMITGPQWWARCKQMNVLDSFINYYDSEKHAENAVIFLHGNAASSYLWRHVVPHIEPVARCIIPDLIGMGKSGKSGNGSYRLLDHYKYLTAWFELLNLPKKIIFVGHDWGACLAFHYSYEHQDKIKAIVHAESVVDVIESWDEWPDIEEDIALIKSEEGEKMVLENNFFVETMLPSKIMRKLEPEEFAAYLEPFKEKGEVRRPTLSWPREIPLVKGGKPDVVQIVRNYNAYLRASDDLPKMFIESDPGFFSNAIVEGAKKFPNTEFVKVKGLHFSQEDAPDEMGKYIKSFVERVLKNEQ
Method: (§1) The retained luminescence for each luciferase was calculated by dividing the luminescence in the presence of the detergent by the luminescence in the absence of the test detergent. The selectivity value for each of the test detergents was determined by dividing the retained firefly luciferase luminescence by the retained Renilla luciferase luminescence.
(§2) A set of detergents (Table 2; Sigma-Aldrich) was added at 0.5% (from a 5% or 10% stock solution) to either Luciferase Assay Reagent (Promega) or Renilla Luciferase Assay Reagent (Promega) and allowed to equilibrate at room temperature.
(§3) The firefly luciferase and Renilla luciferase enzymes were diluted as follows. Firefly luciferase was diluted to 14 ng/ml in Phosphate Buffered Saline (PBS) containing 0.1% of the protein carrier Prionex® (Pentapharm). Renilla luciferase was diluted to 10 ng/ml in 1× Renilla Luciferase Lysis Buffer (Promega) containing 0.1% Prionex®. The Renilla Luciferase Lysis Buffer […] detergent micelles when using the Renilla Luciferase Assay Reagent. In the absence of other detergents, this prevents sequestering of coelenterazine which inhibits Renilla luciferase-mediated luminescence.
(§4) The luciferase reactions were initiated by adding 40 μl of either the firefly or Renilla luciferase enzyme solution to 200 μl of the appropriate reagent solution (firefly luciferase enzyme solution+firefly luciferase reagent solution or Renilla luciferase enzyme solution+Renilla luciferase reagent solution, respectively). The reactions were performed in an opaque white, 96-well plate and luminescence was measured for 0.5 seconds per well using a Turner BioSystems Veritas™ Microplate luminometer. The retained firefly luciferase and Renilla luciferase luminescence, as well as the selectivity values for each detergent, were calculated (Table 2).

[2] = biological target: T2, firefly luciferase (Photinus pyralis, UniProt P08659); assay: biochemical; conditions: 0.5% detergent in Luciferase Assay Reagent; read-out: Retained Firefly Luciferase Luminescence (%)
Method: as §1, §2, §3, §4

[3] = biological target: T1, Renilla luciferase; assay: Detergent titration with Tergitol NP-9, digitonin or no lysing agent, Renilla luciferase (Example 4); format: biochemical; conditions: for remaining activity at 0.0005 % / remaining activity at 0.005 % / remaining activity at 0.05 %: read-out: Relative Renilla Luc Intensity
Method: Renilla luciferase-mediated luminescence was measured from samples containing 9.6 mM phosphate buffer pH 6.8, 2.7 mM KCl, 137 mM NaCl (in PBS), 0.1% gelatin, 75 nM coelentrazine (Promega) and 10.2 ng/ml Renilla luciferase. Reactions contained either no lysing agent, 0.5% Tergitol NP-9 or 20 μg/ml digitonin. The detergents to be tested were titrated to 0.05%, 0.005% or 0.0005% in the reactions prior to the addition of the Renilla luciferase. Renilla luciferase-mediated luminescence was measured as described herein.

[4] = biological target: T2, firefly luciferase; assay: Detergent titration with Tergitol NP-9, digitonin or no lysing agent, firefly luciferase (Example 4); format: biochemical; conditions: read-out: Relative Firefly Luc Intensity; for remaining activity at 0.0005 %: 0.0005% detergent; for remaining activity at 0.005 %: 0.0050% detergent; for remaining activity at 0.05 %: 0.0500% detergent
Method: For measurement of firefly luciferase-mediated luminescence, a solution containing 110 mM HEPES pH 7.5, 8 mM MgSO4, 0.05% gelatin, 7.35 ng/ml firefly luciferase (QuantiLum® Luciferase; Promega) and the content of the Steady-Glo Luciferase Substrate (Promega) at the equivalent of 1×, As in the Renilla luciferase reactions, reactions contained either no lysing agent, 0.5% Tergitol NP-9 or 20 μg/ml digitonin. The same detergents were titrated as described above and firefly luciferase-mediated luminescence was measured.

[5] = 0.0500% (w:v) detergent, Terg (0.5% Tergitol NP-9)
[6] = 0.0500% detergent, Dig (20 μg/ml digitonin)
[7] = 0.0500% detergent, Water (no lysing agent)

T2 sequence (P08659 whole entry): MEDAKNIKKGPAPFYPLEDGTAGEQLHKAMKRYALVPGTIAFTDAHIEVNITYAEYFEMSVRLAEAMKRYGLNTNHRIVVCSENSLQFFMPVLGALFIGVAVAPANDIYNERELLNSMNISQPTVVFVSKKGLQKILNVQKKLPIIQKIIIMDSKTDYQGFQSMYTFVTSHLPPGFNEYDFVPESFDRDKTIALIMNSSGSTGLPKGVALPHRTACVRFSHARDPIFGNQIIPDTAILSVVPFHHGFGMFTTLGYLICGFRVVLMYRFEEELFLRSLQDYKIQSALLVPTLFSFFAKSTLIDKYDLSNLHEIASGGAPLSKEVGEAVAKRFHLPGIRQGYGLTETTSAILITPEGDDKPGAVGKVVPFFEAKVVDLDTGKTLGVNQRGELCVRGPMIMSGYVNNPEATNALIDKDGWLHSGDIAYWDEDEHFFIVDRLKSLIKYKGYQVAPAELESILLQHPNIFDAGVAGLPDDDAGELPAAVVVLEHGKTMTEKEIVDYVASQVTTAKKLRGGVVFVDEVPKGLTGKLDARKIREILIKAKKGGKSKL

| SMILES | remaining activity at 0.5 % [1] [%] | remaining activity at 0.5 % [2] [%] | Selective Inhibition (Ff Luc Inh/Ren Luc Inh) ([3]; 0.0005% detergent, Dig) | remaining activity at 0.0005 % ([3]; 0.0005% detergent, Dig) [%] | Selective Inhibition (Ff Luc Inh/Ren Luc Inh) ([3]; 0.0005% detergent, Terg) | remaining activity at 0.0005 % ([3]; 0.0005% detergent, Terg) [%] | Selective Inhibition (Ff Luc Inh/Ren Luc Inh) ([3]; 0.0005% detergent, Water) | remaining activity at 0.0005 % ([3]; 0.0005% detergent, Water) [%] | Selective Inhibition (Ff Luc Inh/Ren Luc Inh) ([3]; 0.0050% detergent, Dig) | remaining activity at 0.005 % ([3]; 0.0050% detergent, Dig) [%] | Selective Inhibition (Ff Luc Inh/Ren Luc Inh) ([3]; 0.0050% detergent, Terg) | remaining activity at 0.005 % ([3]; 0.0050% detergent, Terg) [%] | Selective Inhibition (Ff Luc Inh/Ren Luc Inh) ([3]; 0.0050% detergent, Water) | remaining activity at 0.005 % ([3]; 0.0050% detergent, Water) [%] | remaining activity at 0.05 % [3, 5] [%] | Selective Inhibition (Ff Luc Inh/Ren Luc Inh) ([3]; 0.0500% detergent, Dig) | remaining activity at 0.05 % [3, 6] [%] | Selective Inhibition (Ff Luc Inh/Ren Luc Inh) ([3]; 0.0500% detergent, Terg) | Selective Inhibition (Ff Luc Inh/Ren Luc Inh) ([3]; 0.0500% detergent, Water) | remaining activity at 0.05 % [3, 7] [%] | other results |
| --- | --- | --- | --- | --- | --- | --- | --- | --- | --- | --- | --- | --- | --- | --- | --- | --- | --- | --- | --- | --- | --- |
| CCCCCCCCCCCC[N+](C)(C)C.[Br-] [Dodecyltrimethylammonium bromide] | 1.74 | 42.1 | 1.1 | 96 | 1.0 | 98 | 1.1 | 95 | 2.3 | 55 | 1.2 | 76 | 2.5 | 51 | 9 | 98 | 2 | 8 | 110 | 2 | Selectivity Value [1]: 24.2; remaining activity at 0.0005 % ([4]; Dig): 103%; remaining activity at 0.0005 % ([4]; Terg): 96%; remaining activity at 0.0005 % ([4]; Water): 107%; remaining activity at 0.005 % ([4]; Dig): 128%; remaining activity at 0.005 % ([4]; Terg): 93%; remaining activity at 0.005 % ([4]; Water): 128%; remaining activity at 0.05 % ([4]; Dig (20 μg/ml digitonin)): 184%; remaining activity at 0.05 % ([4]; Terg (0.5% Tergitol NP-9)): 71%; remaining activity at 0.05 % ([4]; Water (no lysing agent)): 197% |
| CCCCC[N+](CCCCC)(CCCCC)CCCCC.[Br-] [Tetrapentylammonium bromide] | 37 | 80.9 | 1.0 | 99 | 1.0 | 96 | 1.0 | 98 | 1.2 | 87 | 1.2 | 81 | 1.2 | 83 | 38 | 2.9 | 40 | 2.5 | 3.0 | 37 | Selectivity Value [1]: 2.2; remaining activity at 0.0005 % ([4]; Dig): 100%; remaining activity at 0.0005 % ([4]; Terg): 97%; remaining activity at 0.0005 % ([4]; Water): 98%; remaining activity at 0.005 % ([4]; Dig): 104%; remaining activity at 0.005 % ([4]; Terg): 96%; remaining activity at 0.005 % ([4]; Water): 101%; remaining activity at 0.05 % ([4]; Dig (20 μg/ml digitonin)): 117%; remaining activity at 0.05 % ([4]; Terg (0.5% Tergitol NP-9)): 95%; remaining activity at 0.05 % ([4]; Water (no lysing agent)): 110% |
| Cc1cc(C)c(C[N+](C)(C)C)cc1C.[Br-] [Trimethyl(2,4,5-Trimethylbenzyl)ammonium bromide] | 1.87 | 0.06 | 1.8 | 63 | 1.0 | 92 | 1.9 | 62 | 18 | 3 | 1.2 | 67 | 17 | 3 | 4 | 47 | 0.03 | 2.9 | 50 | 0.03 | remaining activity at 0.0005 % ([4]; Dig): 116%; remaining activity at 0.0005 % ([4]; Terg): 95%; remaining activity at 0.0005 % ([4]; Water): 116%; remaining activity at 0.005 % ([4]; Dig): 52%; remaining activity at 0.005 % ([4]; Terg): 83%; remaining activity at 0.005 % ([4]; Water): 54%; remaining activity at 0.05 % ([4]; Dig (20 μg/ml digitonin)): 1%; remaining activity at 0.05 % ([4]; Terg (0.5% Tergitol NP-9)): 12%; remaining activity at 0.05 % ([4]; Water (no lysing agent)): 1% |
